# Tested on: MDA-MB-231 human breast cancer cell line
# Details: MDA-MB-231, 10,000 cells/well; same amount of doxorubicin; exosomes 2.56×10^11 particles/mL; FIG. 11
smiles,measurement,value
COc1cccc2c1C(=O)c1c(O)c3c(c(O)c1C2=O)C[C@@](O)(C(=O)CO)C[C@@H]3O[C@H]1C[C@H](N)[C@H](O)[C@H](C)O1 [doxorubicin],growth of the breast cancer cells,inhibited the growth of the breast cancer cells
